Reference: ChEMBL document CHEMBL1201862, “PubChem BioAssay data set” (2004)
Activity calls are given as the source filed them.

Key:
Escherichia coli = test: microbe, parasite or virus in culture
[1] = Trypanosoma cruzi growth suppression in host cells – NIH3T3 host cells, beta-gal luminescence, confirmation (AID 2044); type: functional, cell-based;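 also: intracellular parasites grown in NIH/3T3 mouse fibroblasts as host cells; luminescent beta-galactosidase reporter signal from transgenic T. cruzi replicating inside host cells; inhibitors lower the luminescence signal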
[2] = NIH3T3 cell viability loss – ATP luminescence, mouse fibroblasts, counter-screen, dose response (AID 2010); type: functional, cell-based;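 also: cells exposed to compound for about 90 hours before reading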
Cytochrome P450 2D6 = Cytochrome P450 2D6 (Homo sapiens, UniProt P10635);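 also: CYP2D6 member of a cytochrome P450 panel assay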
Sequence of Cytochrome P450 2D6 (P10635 whole entry): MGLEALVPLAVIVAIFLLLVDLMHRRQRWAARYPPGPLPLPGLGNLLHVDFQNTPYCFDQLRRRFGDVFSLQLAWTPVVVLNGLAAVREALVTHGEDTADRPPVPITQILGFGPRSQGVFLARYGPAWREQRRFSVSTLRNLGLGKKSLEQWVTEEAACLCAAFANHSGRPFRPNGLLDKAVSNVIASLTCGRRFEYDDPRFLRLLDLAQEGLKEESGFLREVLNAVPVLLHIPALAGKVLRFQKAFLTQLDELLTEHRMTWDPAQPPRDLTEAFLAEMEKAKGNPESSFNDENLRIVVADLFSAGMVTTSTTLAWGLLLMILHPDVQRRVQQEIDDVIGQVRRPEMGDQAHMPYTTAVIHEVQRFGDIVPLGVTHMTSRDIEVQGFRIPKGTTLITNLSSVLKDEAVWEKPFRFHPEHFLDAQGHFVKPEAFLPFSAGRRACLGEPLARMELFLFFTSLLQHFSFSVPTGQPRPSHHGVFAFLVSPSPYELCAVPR

Cytochrome P450 2C9 = Cytochrome P450 2C9 (Homo sapiens, UniProt P11712)
Sequence of Cytochrome P450 2C9 (P11712 whole entry): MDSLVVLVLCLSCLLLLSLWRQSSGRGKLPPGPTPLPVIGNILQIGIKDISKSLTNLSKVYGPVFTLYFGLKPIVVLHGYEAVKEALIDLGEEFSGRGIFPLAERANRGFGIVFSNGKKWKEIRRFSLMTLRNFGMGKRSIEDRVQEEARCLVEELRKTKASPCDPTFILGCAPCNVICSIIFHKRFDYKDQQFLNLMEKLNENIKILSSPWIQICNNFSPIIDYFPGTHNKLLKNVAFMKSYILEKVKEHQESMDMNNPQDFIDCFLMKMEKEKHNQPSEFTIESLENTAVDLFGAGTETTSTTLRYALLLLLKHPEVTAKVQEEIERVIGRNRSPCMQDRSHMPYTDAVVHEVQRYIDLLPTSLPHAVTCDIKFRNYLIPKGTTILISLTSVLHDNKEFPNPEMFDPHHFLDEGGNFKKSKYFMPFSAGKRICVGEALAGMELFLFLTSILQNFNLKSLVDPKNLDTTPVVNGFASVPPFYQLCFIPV

CAAX prenyl protease 2 [3] = molecular target: T1, CAAX prenyl protease 2 (Homo sapiens, UniProt Q9Y256); test: inhibition of Ras-converting CAAX protease Rce1 – biochemical, yeast membranes, quenched-peptide fluorescence, cherry-pick, dose response (AID 588849)
T1 sequence (Q9Y256 whole entry): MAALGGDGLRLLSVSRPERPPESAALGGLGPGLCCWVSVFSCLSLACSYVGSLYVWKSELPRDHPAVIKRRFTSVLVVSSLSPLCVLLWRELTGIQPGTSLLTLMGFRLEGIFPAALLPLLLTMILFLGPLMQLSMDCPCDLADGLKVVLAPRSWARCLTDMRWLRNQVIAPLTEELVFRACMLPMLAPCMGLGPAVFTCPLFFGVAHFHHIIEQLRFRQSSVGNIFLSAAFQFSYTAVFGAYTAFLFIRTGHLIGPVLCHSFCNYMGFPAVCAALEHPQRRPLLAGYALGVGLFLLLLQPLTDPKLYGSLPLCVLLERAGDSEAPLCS

[4] = tested on: Streptococcus sp. 'group A'; test: Streptococcus pyogenes SK(-)GAS viability under kanamycin – luminescence, BacTiterGlo, confirmation, counter-screen for streptokinase expression inhibitor project, dose response (AID 1900); type: functional, organism-based
Streptococcus = test: GAS UMAA2166 growth inhibition – luminescence, BacTiterGlo, counter-screen for streptokinase expression inhibitor project, dose response (AID 1915); type: functional, organism-based;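 also: potency for reduction of bacterial viability or growth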
Trypsin = Trypsin (Sus scrofa, UniProt P00761); test: trypsin protease activity blockade – biochemical, quenched peptide fluorescence, cherry-pick, selectivity assay for Rce1 protease inhibitor project, dose response (AID 488789)
Sequence of Trypsin (P00761 whole entry): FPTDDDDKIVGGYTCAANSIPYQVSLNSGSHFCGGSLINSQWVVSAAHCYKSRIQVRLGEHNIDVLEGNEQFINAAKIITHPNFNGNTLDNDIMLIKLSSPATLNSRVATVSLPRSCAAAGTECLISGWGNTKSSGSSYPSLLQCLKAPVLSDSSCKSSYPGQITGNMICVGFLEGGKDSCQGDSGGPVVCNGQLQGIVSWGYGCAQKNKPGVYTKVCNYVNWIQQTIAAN

Streptokinase A = molecular target: T2, Streptokinase A (Streptococcus pyogenes serotype M1, UniProt P10520); test: viability-normalized secreted streptokinase activity reduction – plasminogen activation absorbance, OD405, dose response (AID 1914); type: functional, Streptococcus pyogenes M1 GAS;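 also: secreted streptokinase activity via plasminogen activation per viability signal from cell pellet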
T2 sequence (P10520 whole entry): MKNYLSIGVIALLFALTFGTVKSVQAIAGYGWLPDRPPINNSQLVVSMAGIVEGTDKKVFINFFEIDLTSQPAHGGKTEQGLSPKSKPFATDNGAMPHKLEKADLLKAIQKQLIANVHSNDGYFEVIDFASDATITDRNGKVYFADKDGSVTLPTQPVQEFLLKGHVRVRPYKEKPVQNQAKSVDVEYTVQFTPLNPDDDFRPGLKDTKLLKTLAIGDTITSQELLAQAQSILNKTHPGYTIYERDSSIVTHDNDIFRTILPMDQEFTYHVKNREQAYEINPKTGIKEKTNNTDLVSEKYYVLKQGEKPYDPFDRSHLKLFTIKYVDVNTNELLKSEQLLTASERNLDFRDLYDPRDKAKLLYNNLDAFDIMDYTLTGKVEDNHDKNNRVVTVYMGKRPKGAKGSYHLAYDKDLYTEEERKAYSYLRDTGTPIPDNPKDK

[5] = viability of uninfected HEp-2 cells – cell-based, HTS, cytotoxicity control for RSV inhibitor project, dose response (AID 2410); type: functional; conditions: human respiratory syncytial virus
CAAX prenyl protease 2 [6] = molecular target: T3, CAAX prenyl protease 2 (Saccharomyces cerevisiae S288c, UniProt Q03530); type: biochemical
T3 sequence (Q03530 whole entry): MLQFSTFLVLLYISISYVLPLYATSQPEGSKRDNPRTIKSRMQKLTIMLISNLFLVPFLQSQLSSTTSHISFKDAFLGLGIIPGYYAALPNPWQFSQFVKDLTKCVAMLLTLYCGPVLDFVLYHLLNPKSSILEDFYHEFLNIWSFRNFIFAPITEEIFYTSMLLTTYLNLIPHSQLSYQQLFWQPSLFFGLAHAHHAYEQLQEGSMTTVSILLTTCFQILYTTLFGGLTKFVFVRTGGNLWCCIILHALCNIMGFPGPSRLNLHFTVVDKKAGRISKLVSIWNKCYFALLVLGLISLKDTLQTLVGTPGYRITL

[7] = blockade of melanocortin 4 receptor signaling – cell-based, plate reader, cherry pick, counter-screen for LGR2 antagonist project, dose response (AID 743444); type: functional;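 also: transfected HEK 293 cells stimulated with alpha-MSH peptide; potency of inhibitors of the alpha-MSH evoked signal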
HEK293 [8] = test: NOD2 signaling inhibitors in MDP-stimulated cells, cell-based, uHTS, luminescence (AID 2001); type: functional; conditions: Homo sapiens
HEK293 [9] = test: cells; type: functional, cell-based; conditions: Homo sapiens
HEK293 [10] = test: cells; type: functional, cell-based; conditions: Homo sapiens; remark: listed apart in the source
HEK293 [11] = test: inhibition of NOD1-driven NF-kB reporter – cell-based, luminescence, uHTS, primary screen (AID 1578); type: functional; conditions: Homo sapiens
[12] = Luminescence Cell-Based Dose Response HTS to Identify Inhibitors of 5'UTR Stem-Loop Driven Prion Protein mRNA Translation in H4 Neuroglioblastoma Cells. [Related pubchem assays: 1827 (Project Summary), 1813 (Primary HTS)]; type: functional
[13] = luciferase reporter signal suppression in cells – H4 neuroglioma cells, luminescence, dose response (AID 1990); type: functional, cell-based
HEK293 [14] = test: EBV LMP1 TES2 canonical NF-kB signalling blockers – cell-based, HEK293, luciferase, cherry-pick, dose response (AID 588343); type: functional; conditions: Homo sapiens
[15] = blockers of bursicon-stimulated LGR2 cAMP reporter – cell-based, HEK293, CRE-luciferase reporter, cherry pick, set 2, dose response (AID 743343); type: functional;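 also: transfected cells were stimulated with diluted bursicon conditioned medium after compound addition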
[16] = alpha-synuclein stem-loop luciferase translation blockers – H4 neuroglioma cells, luminescence, confirmation (AID 1988); type: functional, cell-based
Nonstructural protein 1 = Nonstructural protein 1 (Influenza A virus, UniProt Q194T2); type: functional, Influenza A virus (A/California/07/2009(H1N1))
Sequence of Nonstructural protein 1 (Q194T2 whole entry): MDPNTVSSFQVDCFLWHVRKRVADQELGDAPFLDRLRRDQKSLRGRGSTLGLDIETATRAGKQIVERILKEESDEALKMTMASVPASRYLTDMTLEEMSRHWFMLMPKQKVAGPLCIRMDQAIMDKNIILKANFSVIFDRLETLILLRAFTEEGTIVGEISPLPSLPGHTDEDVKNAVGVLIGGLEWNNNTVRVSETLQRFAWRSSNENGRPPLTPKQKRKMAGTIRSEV

[17] = molecular target: T4, Nuclear receptor subfamily 0 group B member 1 (Homo sapiens, UniProt P51843); test: Luminescence-based cell-based high throughput dose response assay for inhibitors of the orphan nuclear receptor subfamily 0, group B, member 1 (DAX1; NR0B1). [Related pubchem assays (depositor defined):AID504766, AID504790]; type: functional
T4 sequence (P51843 whole entry): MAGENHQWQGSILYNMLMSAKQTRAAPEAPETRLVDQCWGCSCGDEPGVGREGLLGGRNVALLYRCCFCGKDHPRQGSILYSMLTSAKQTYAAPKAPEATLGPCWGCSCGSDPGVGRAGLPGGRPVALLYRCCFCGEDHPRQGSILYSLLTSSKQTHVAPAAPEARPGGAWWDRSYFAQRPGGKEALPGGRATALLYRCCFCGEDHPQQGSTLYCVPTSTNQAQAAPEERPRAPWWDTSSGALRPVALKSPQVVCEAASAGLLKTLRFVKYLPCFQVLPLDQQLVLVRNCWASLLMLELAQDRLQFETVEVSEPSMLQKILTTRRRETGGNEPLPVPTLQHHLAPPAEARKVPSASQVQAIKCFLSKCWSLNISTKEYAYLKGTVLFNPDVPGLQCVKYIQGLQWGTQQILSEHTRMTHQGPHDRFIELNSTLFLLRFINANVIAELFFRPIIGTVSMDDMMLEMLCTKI

HEK293 [18] = test: cells; type: functional, cell-based; conditions: Homo sapiens; remark: listed apart in the source

## Clc1ccc(C2[C@H]3CN(Cc4cccnc4)[C@H](c4ccccc4)C34CC2(c2ccccc2)C4)cn1 (some centres undefined)
Escherichia coli
  AC50: 34.8 µM (active)
[1]
  EC50: 1.61 µM (active)
[2]
  EC50: 9.94 µM (active)

## Cc1ccc(C)c(C(=O)C2=C(O)C(=O)N(Cc3cccnc3)C2c2cccnc2)c1 (centres undefined)
Cytochrome P450 2D6
  AC50: inconclusive
Cytochrome P450 2C9
  AC50: 3.16 µM (inconclusive)

## COc1cc(-c2c(C#N)c(N)nc3c2c(C)nn3-c2ccc(C)c(C)c2)cc(OC)c1OC
CAAX prenyl protease 2 [3]
  AC50: 11.2 µM (active)
[4]
  EC50: 5.69 µM (active)
Streptococcus
  EC50: 36.4 µM (active)
Trypsin
  AC50: 16.1 µM (active)
Streptokinase A
  EC50: > 150 µM (not active)
[5]
  CC50: 22.1 µM (active)
cells
  IC50: 31.8 µM (active)

## O=C(c1ccc(Cn2cnnn2)cc1)N1CCCC(Nc2ccc(F)cc2)C1 (centres undefined)
CAAX prenyl protease 2 [3]
  AC50: 22.6 µM (active)
Trypsin
  AC50: 5.79 µM (active)
CAAX prenyl protease 2 [6]
  AC50: 5.9 µM (active)

## O=C1OCCC1Sc1nnc(-c2ccc(Cl)cc2Cl)o1 (centres undefined)
[7]
  AC50: 9.84 µM (active)
HEK293 [8]
  IC50: 13 µM (inactive)
HEK293 [9]
  IC50: 6.93 µM (active)
HEK293 [10]
  IC50: > 20 µM (inactive)
HEK293 [11]
  EC50: 6.32 µM (active)
[12]
  EC50: 9.97 µM (active)
[13]
  EC50: 7.77 µM (active)
HEK293 [14]
  AC50: 7.18 µM (active)
[15]
  AC50: 9.34 µM (active)
[16]
  EC50: 8.84 µM (active)

## Cc1ccnc2nc(C(=O)Nc3nc(-c4ccccn4)cs3)nn12
Nonstructural protein 1
  IC50: 5.06 µM (active)
[17]
  IC50: > 67.5 µM (inactive)
HEK293 [18]
  IC50: 65.2 µM (inactive)

## CNC(=O)OCC[N+](C)(C)C
Cytochrome P450 2D6
  AC50: inconclusive
